Source: patent US8629168B2, “Benzoxazoles and oxazolopyridines being useful as janus kinases inhibitors” (priority 2006, dated 2014)

The molecules below were run against T1, GST-JAK2(808-1132) (Homo sapiens, UniProt O60674) (assay: EPK JAK/TYK-kinase family profiling assay (Caliper mobility shift), JAK2). Details: Caliper mobility shift assay of Example 187, 20 μM ATP, read-out: IC50 with Test in present Example.
T1 construct: GST-JAK2(808-1132) is purchased from Invitrogen; purchased Invitrogen (Carlsbad, USA) #4288
T1 sequence (O60674 808-1132): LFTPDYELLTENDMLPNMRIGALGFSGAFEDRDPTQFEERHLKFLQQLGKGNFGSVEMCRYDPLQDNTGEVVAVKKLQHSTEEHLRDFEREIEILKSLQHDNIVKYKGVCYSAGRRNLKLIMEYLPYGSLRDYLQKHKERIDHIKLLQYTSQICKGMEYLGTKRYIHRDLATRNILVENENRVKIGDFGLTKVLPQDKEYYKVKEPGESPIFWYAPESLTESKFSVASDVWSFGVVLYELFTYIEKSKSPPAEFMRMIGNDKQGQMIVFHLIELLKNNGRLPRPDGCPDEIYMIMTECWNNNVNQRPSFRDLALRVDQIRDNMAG
Type: biochemical
Source text: All four kinases of the JAK/TYK-kinase family are used as purified recombinant GST-fusion proteins, containing the active kinase domains. GST-JAK1(866-1154), GST-JAK3(811-1124), and GST-TYK2(888-1187) are expressed and purified by affinity chromatography. GST-JAK2(808-1132) is purchased from Invitrogen (Carlsbad, USA, #4288).
The kinase assays are based on the Caliper mobility shift assay using the LabChip 3000 systems. This technology is similar to capillary electrophoresis and uses charge driven separation of substrate and product in a microfluidic chip.
All kinase reactions are performed in 384 well microtiter plates in a total reaction volume of 18 μl. The assay plates are prepared with 0.1 μl per well of test compound in the appropriate test concentration, as described under the section “preparation of compound dilutions”. The reactions are started by combining 9 μl of substrate mix (consisting of peptide and ATP) with 9 μl of kinase dilution. The reactions are incubated for 60 minutes at 30° C. and stopped by adding 70 μl of stop buffer (100 mM Hepes, 5% DMSO, 0.1% Coating reagent, 10 mM EDTA, 0.015% Brij 35).
Fluorescently labeled synthetic peptides are used as substrates in all reactions. […] Specific assay conditions are described in Table 1:
The terminated reactions are transferred to a Caliper LabChip 3000 reader (Caliper Life Sciences, Mountain View, Calif., USA) and the turnover of each reaction is measured by determining the substrate/product ratio.
Test compounds are dissolved in DMSO (10 mM) and transferred into 1.4 mL flat bottom or V-shaped Matrix tubes carrying a unique 2D matrix chip by individual compound hubs. The numbers of these chips are distinctively linked to the individual compound identification numbers. The stock solutions are stored at −20° C. if not used immediately. For the test procedure the vials are defrosted and identified by a scanner whereby a working sheet is generated that guides the subsequent working steps.
Compound dilutions are made in 96 well plates. This format enabled the assay of maximally 40 individual test compounds at 8 concentrations (single points) including 4 reference compounds. The dilution protocol includes the production of pre-dilution plates, master plates and assay plates:
Pre-dilution plates: 96 polypropylene well plates are used as pre-dilution plates. A total of 4 pre-dilution plates are prepared including 10 test compounds each on the plate positions A1-A10, one standard compound at A11 and one DMSO control at A12. All dilution steps are done on a Hamilton STAR robot (Hamilton, Co., Reno, Nev., USA).
Master plates: 100 μL of individual compound dilutions including standard compound and controls of the 4 “pre-dilution plates” are transferred into a 384 “master plate” including the following concentrations 1,820, […], 182, 54.6, 18.2, 5.46, 1.82 and 0.546 μM, respectively in 90% of DMSO.
Assay plates: Identical assay plates are then prepared by pipetting 100 nL each of compound dilutions of the master plates into 384-well “assay plates”. In the following the compounds are mixed with 9 μL of assays components plus 9 μL enzyme corresponding to a 1:181 dilution steps enabling the final concentration of 10, 3.0, 1.0, 0.3, 0.1, 0.03, 0.01 and 0.003 μM, respectively. The preparation of the master plates are handled by the Matrix PlateMate Plus robot (Thermo Fisher Scientific, Handforth, Cheshire, United Kingdom) and replication of assay plates by the HummingBird robot (Genomic Solutions, Inc., Ann Arbor, Mich., USA).

IC50	SMILES
0.06 µM	CN1CCN(c2ccc(Nc3nc4cccc(-c5ccc(CN6CCS(=O)(=O)CC6)cc5)c4o3)cc2)CC1 [Example 89, {7-[4-(1,1-Dioxo-1lambda*6*-thiomorpholin-4-ylmethyl)-phenyl]-benzooxazol-2-yl}-[4-(4-methyl-piperazin-1-yl)-phenyl]-amine]
0.0565 µM	CN1CCN(c2ccc(Nc3nc4cccc(-c5ccc(C(=O)N6CCOCC6)c(F)c5)c4o3)cc2C#N)CC1 [Example 90, 5-{7-[3-Fluoro-4-(morpholine-4-caronyl)-phenyl]-benzooxazol-2-ylamino}-2-(4-methyl-piperazin-1-yl)-benzonitrile]
0.064 µM	O=C(c1ccc(-c2cccc3nc(Nc4ccc(N5CCNCC5)cc4)oc23)cc1F)N1CCOCC1 [Example 91, {2-Fluoro-4-[2-(4-piperazin-1-yl-phenylamino)-benzooxazol-7-yl]-phenyl}-morpholin-4-yl-methanone]
0.0101 µM	CCN1CCN(c2ccc(Nc3nc4cccc(-c5ccc(S(C)(=O)=O)cc5)c4o3)cc2C)CC1 [Example 92, [4-(4-Ethyl-piperazin-1-yl)-3-methyl-phenyl]-[7-(4-methanesulfonyl-phenyl)-benzooxazol-2-yl]-amine]
0.052 µM	CN1CCN(c2ccc(Nc3nc4cccc(-c5ccc(S(N)(=O)=O)cc5)c4o3)cc2)CC1 [Example 93, 4-{2-[4-(4-Methyl-piperazin-1-yl)-phenylamino]-benzooxazol-7-yl}-benzenesulfonamide]
0.0069 µM	CCN1CCN(c2ccc(Nc3nc4cccc(-c5ccc(C(=O)N6CCOCC6)c(F)c5)c4o3)cc2C)CC1 [Example 94, (4-{2-[4-(4-Ethyl-piperazin-1-yl)-3-methyl-phenylamino]-benzooxazol-7-yl}-2-fluoro-phenyl)-morpholin-4-yl-methanone]
0.00685 µM	CN1CCN(c2ccc(Nc3nc4cccc(-c5cc(F)c(CN6CCS(=O)(=O)CC6)c(F)c5)c4o3)cc2)CC1 [Example 95, {7-[4-(1,1-Dioxo-1lambda*6*-thiomorpholin-4-ylmethyl)-3,5-difluoro-phenyl]-benzooxazol-2-yl}-[4-(4-methyl-piperazin-1-yl)-phenyl]-amine]
0.00435 µM	Cc1cc(Nc2nc3cccc(-c4cc(F)c(CN5CCS(=O)(=O)CC5)c(F)c4)c3o2)ccc1C(=O)N1CCCC1 [Example 96, (4-{7-[4-(1,1-Dioxo-1lambda*6*-thiomorpholin-4-ylmethyl)-3,5-difluoro-phenyl]-benzooxazol-2-ylamino}-2-methyl-phenyl)-pyrrolidin-1-yl-methanone]
0.0215 µM	Cc1cc(-c2cccc3nc(Nc4ccc(N5CCN(C6CC6)CC5)cc4)oc23)ccc1C(=O)N1CCOCC1 [Example 97, (4-{2-[4-(4-Cyclopropyl-piperazin-1-yl)-phenylamino]-benzooxazol-7-yl}-2-methyl-phenyl)-morpholin-4-yl-methanone]
0.0052 µM	CCN1CCN(c2ccc(Nc3nc4cccc(-c5cc(F)c(CN6CCOCC6)c(F)c5)c4o3)cc2C)CC1 [Example 98, [7-(3,5-Difluoro-4-morpholin-4-ylmethyl-phenyl)-benzooxazol-2-yl]-[4-(4-ethyl-piperazin-1-yl)-3-methyl-phenyl]-amine]
0.0192 µM	Cc1cc(Nc2nc3cccc(-c4cc(F)c(CN5CCOCC5)c(F)c4)c3o2)ccc1C(=O)N1CCCC1 [Example 99, {4-[7-(3,5-Difluoro-4-morpholin-4-ylmethyl-phenyl)-benzooxazol-2-ylamino]-2-methyl-phenyl}-pyrrolidin-1-yl-methanone]
0.0165 µM	Cc1cc(Nc2nc3cccc(-c4ccc(S(C)(=O)=O)cc4)c3o2)ccc1N1CCN(CCN(C)C)CC1 [Example 100, {4-[4-(2-Dimethylamino-ethyl)-piperazin-1-yl]-3-methyl-phenyl}-[7-(4-methanesulfonyl-phenyl)-benzooxazol-2-yl]-amine]
0.0036 µM	Cc1cc(Nc2nc3cccc(-c4cc(F)c(CN5CCS(=O)(=O)CC5)c(F)c4)c3o2)ccc1N1CCN(C(C)C)CC1 [Example 101, {7-[4-(1,1-Dioxo-1lambda*6*-thiomorpholin-4-ylmethyl)-3,5-difluoro-phenyl]-benzooxazol-2-yl}-[4-(4-isopropyl-piperazin-1-yl)-3-methyl-phenyl]-amine]
0.00565 µM	Cc1cc(-c2cccc3nc(Nc4ccc(N5CCN(CCN(C)C)CC5)c(C)c4)oc23)ccc1C(=O)N1CCOCC1 [Example 102, [4-(2-{4-[4-(2-Dimethylamino-ethyl)-piperazin-1-yl]-3-methyl-phenylamino}-benzooxazol-7-yl)-2-methyl-phenyl]-morpholin-4-yl-methanone]
0.014 µM	CCN(CC)C(=O)c1ccc(Nc2nc3cccc(-c4cc(F)c(CN5CCOCC5)c(F)c4)c3o2)cc1C [Example 103, 4-[7-(3,5-Difluoro-4-morpholin-4-ylmethyl-phenyl)-benzooxazol-2-ylamino]-N,N-diethyl-2-methyl-benzamide]
0.015 µM	CCN1CCN(C(=O)c2ccc(Nc3nc4cccc(-c5cc(F)c(CN6CCOCC6)c(F)c5)c4o3)cc2C)CC1 [Example 104, {4-[7-(3,5-Difluoro-4-morpholin-4-ylmethyl-phenyl)-benzooxazol-2-ylamino]-2-methyl-phenyl}-(4-ethyl-piperazin-1-yl)-methanone]
0.02 µM	Cc1cc(Nc2nc3cccc(-c4ccc(S(C)(=O)=O)cc4)c3o2)ccc1N1CCN(C(C)C)CC1 [Example 105, [4-(4-Isopropyl-piperazin-1-yl)-3-methyl-phenyl]-[7-(4-methanesulfonyl-phenyl)-benzooxazol-2-yl]-amine]
0.00615 µM	Cc1cc(-c2cccc3nc(Nc4ccc(N5CCN(C(C)C)CC5)c(C)c4)oc23)ccc1C(=O)N1CCOCC1 [Example 106, (4-{2-[4-(4-Isopropyl-piperazin-1-yl)-3-methyl-phenylamino]-benzooxazol-7-yl}-2-methyl-phenyl)-morpholin-4-yl-methanone]
0.0043 µM	Cc1cc(Nc2nc3cccc(-c4cc(F)c(CN5CCS(=O)(=O)CC5)c(F)c4)c3o2)ccc1N1CCN(CCN(C)C)CC1 [Example 107, {4-[4-(2-Dimethylamino-ethyl)-piperazin-1-yl]-3-methyl-phenyl}-{7-[4-(1,1-dioxo-1lambda*6*-thiomorpholin-4-ylmethyl)-3,5-difluoro-phenyl]-benzooxazol-2-yl}-amine]
0.0103 µM	COCCN1CCN(c2ccc(Nc3nc4cccc(-c5cc(F)c(CN6CCS(=O)(=O)CC6)c(F)c5)c4o3)cc2C)CC1 [Example 108, {7-[4-(1,1-Dioxo-1lambda*6*-thiomorpholin-4-ylmethyl)-3,5-difluoro-phenyl]-benzooxazol-2-yl}-{4-[4-(2-methoxy-ethyl)-piperazin-1-yl]-3-methyl-phenyl}-amine]
0.011 µM	CCN1CCN(c2ccc(Nc3nc4cccc(-c5cc(F)c(C(=O)N6CCOCC6)c(F)c5)c4o3)cc2C)CC1 [Example 109, (4-{2-[4-(4-Ethyl-piperazin-1-yl)-3-methyl-phenylamino]-benzooxazol-7-yl}-2,6-difluoro-phenyl)-morpholin-4-yl-methanone]
0.088 µM	Cc1cc(-c2cccc3nc(Nc4ccc(C(=O)N5CCCC5)c(C)c4)oc23)ccc1CN1CCOCC1 [Example 110, {2-Methyl-4-[7-(3-methyl-4-morpholin-4-ylmethyl-phenyl)-benzooxazol-2-ylamino]-phenyl}-pyrrolidin-1-yl-methanone]
0.0165 µM	CCN1CCN(c2ccc(Nc3nc4cccc(-c5ccc(C(C)(C)C(=O)N6CCOCC6)cc5)c4o3)cc2C)CC1 [Example 111, 2-(4-{2-[4-(4-Ethyl-piperazin-1-yl)-3-methyl-phenylamino]-benzooxazol-7-yl}-phenyl)-2-methyl-1-morpholin-4-yl-propan-1-one]
0.0175 µM	CCN1CCN(c2ccc(Nc3nc4cccc(-c5ccc(S(N)(=O)=O)cc5)c4o3)cc2C)CC1 [Example 112, 4-{2-[4-(4-Ethyl-piperazin-1-yl)-3-methyl-phenylamino]-benzooxazol-7-yl}-benzenesulfonamide]
